Where two headings read alike, the source gives them in different places.

From patent US9777015B2, “Useful thiophene derivatives in the treatment of diabetes” (METABRAIN RESEARCH, priority 2012, dated 2017) come the findings set out here.

The test system of one assay is INS-1 cells. As to the kind of experiment: Stimulation test of insulin secretion by INS-1 cells. Particulars: Rattus norvegicus, 1 h incubation, 3.5 mM glucose; for activity at 10 µM: INS1, compound at 10 μM, read-out: INS-1 % of ctrl @ 10 μM; for activity at 50 µM: INS1, compound at 50 μM, read-out: INS-1 % of ctrl @ 50 μM. Type of assay: cell-based. The protocol: The different compounds were tested on an INS-1 beta-pancreatic line in order to evaluate their capability of potentializing the insulin secretion in response to glucose. Very briefly, the cells are cultivated in a culture medium, RPMI 1640 with 10 mM glucose containing 1 mM of sodium pyruvate, 50 μM of 2-mercaptoethanol, 2 mM of glutamine, 10 mM of HEPES, 100 IU/mL of penicillin, 100 μg/mL of streptomycin and 10% of inactivated fetal calf serum, as described by Asfari et al.. For the insulin secretion test, the INS-1 cells are sown and cultivated in 96-well plates. After 3 days of cultivation at 37° C. in a humid atmosphere (95% air/5% CO2), the medium is removed and the cells are incubated for 16 h in a medium containing 5 mM of glucose and 1% of inactivated fetal calf serum. On the day of the test, the cells are washed with a Krebs buffer (pH 7.4) containing 0.1% of bovine albumin and then pre-incubated for 30 min at 37° C. in this same buffer containing 2.8 mM of glucose. Finally, the cells are again washed with Krebs buffer and then incubated for 1 h in the buffer of the secretion test (Krebs, pH 7.4 containing 0.1% of bovine albumin and 3.5 mM of glucose and molecules to be evaluated). At the end of the test, the cell supernatant is recovered in order to measure therein the secreted insulin, by means of an ELISA kit using a rat anti-insulin antibody (ELISA Alpco Cat no. 80-INSRTH-E10). Each condition is tested in triplicate. The 3.5 mM glucose, the 10^−7M GLP-1 and the Forskoline 10^−7/IBMX 10^−5M mixtures are used as positive controls of the test. A compound stimulates the secretion of insulin if this factor is greater than or equal to 130% of the control for a given glucose dose.

In assay [1] the test system is hepatocytes isolated from Wistar rat liver. Description: Test of inhibition of hepatic production of glucose (isolated hepatocytes, 3 h or 20 h incubation). Type of assay: cell-based. Particulars: for activity at 50 µM / activity at 100 µM: Rattus norvegicus, Hepatocyte, hepatic glucose production, rat hepatocytes; for activity at 50 µM: compound at 50 μM, read-out: HGP % of ctrl @ 50 μM; for activity at 100 µM: compound at 100 μM, read-out: HGP % of ctrl @ 100 μM. In short, it runs like this:
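Hepatocytes from 24 h-fasted Wistar rats were cultured overnight in glucose-free RPMI with hydrocortisone (7.10^−5M). Glucose production was run for 3 h in Krebs with lactate/pyruvate plus compounds (0.1% DMSO final), or after an added 20 h pretreatment during the RPMI culture. Supernatant glucose was measured by glucose oxidase and expressed per mg protein (Lowry).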

As for `COc1ccc(C(=O)c2cc(CC(=O)OC(C)(C)C)c(-c3ccc(Cl)cc3)s2)cc1` [compound 84, tert-butyl 2-(2-(4-chlorophenyl)-5-(4-methoxybenzoyl)thiophen-3-yl)acetate], in the assay on INS-1 cells, the activity at 10 µM was found to be 139% and the activity at 50 µM worked out at 153%. In assay [1] (20 h, 20 h incubation), the activity at 50 µM was determined as 85% and the activity at 100 µM was 40%.
For the molecule `CCOC(=O)Cc1cc(C(=O)c2ccco2)sc1-c1cccc(F)c1F` [compound 130, ethyl 2-(2-(2,3-difluorophenyl)-5-(furan-2-carbonyl)thiophen-3-yl)acetate], in the assay with INS-1 cells, the activity at 10 µM was determined as 179% and the activity at 50 µM is 323%. Further, the “inhibition of hepatic production of glucose” value (from here on “inhibition”) in assay [1] (20 h incubation, with two doses) is given as “strongest inhibitions”. Moreover, in assay [1] (20 h, 20 h incubation), the activity at 50 µM was 53% and the activity at 100 µM stood at 40%.
As for `O=C(O)Cc1cc(C(=O)c2ccco2)sc1-c1cccc(F)c1F` [compound 136, 2-(2-(2,3-difluorophenyl)-5-(furan-2-carbonyl)thiophen-3-yl) acetic acid], in the assay with INS-1 cells, the activity at 10 µM stood at 120% and the activity at 50 µM is 158%. Further, in assay [1] (20 h, 20 h incubation), the activity at 50 µM turned out to be 64% and the activity at 100 µM was 43%.
As to `CCOC(=O)Cc1cc(C(=O)c2ccc(Cl)cc2OC)sc1-c1ccc(Cl)cc1` [compound 155, ethyl 2-[5-(4-chloro-2-methoxy-benzoyl)-2-(4-chlorophenyl)-3-thienyl]acetate], in the assay on INS-1 cells, the activity at 50 µM amounted to 143%. Also, in assay [1] (3 h, 3 h incubation), the activity at 50 µM was determined as 65% and the activity at 100 µM came to 54%.
On to `COC(=O)Cc1cc(C(=O)c2ccccn2)sc1-c1ccc(Cl)cc1` [compound 148], for which, in the assay on INS-1 cells, the activity at 10 µM is 134% and the activity at 50 µM came to 189%. In addition, in assay [1] (3 h, 3 h incubation), the activity at 50 µM worked out at 80% and the activity at 100 µM came out at 49%.
As to `COc1ccc(S(=O)(=O)c2cc(CC(=O)O)c(-c3ccc(Cl)c(Cl)c3)s2)cc1` [compound 175, 2-[2-(3,4-dichlorophenyl)-5-(4-methoxyphenyl)sulfonyl-3-thienyl]acetic acid], in the assay with INS-1 cells, the activity at 10 µM was determined as 106% and the activity at 50 µM was determined as 145%. In assay [1] (3 h incubation, with two doses), the “inhibition” value is reported as “strongest inhibitions”. For the same molecule, in assay [1] (3 h, 3 h incubation), the activity at 50 µM was 51% and the activity at 100 µM is 20%.
For the molecule `CCOC(=O)Cc1cc(C(=O)c2ccc(Cl)o2)sc1-c1ccc(Cl)cc1` [compound 176, ethyl 2-[5-(5-chlorofuran-2-carbonyl)-2-(4-chlorophenyl)-3-thienyl]acetate], in the assay on INS-1 cells, the activity at 10 µM came out at 144% and the activity at 50 µM worked out at 246%. In assay [1] (3 h, 3 h incubation), the activity at 50 µM stood at 76% and the activity at 100 µM came out at 36%.
Turning to `COC(=O)Cc1cc(C(=O)c2ccco2)sc1-c1ccccc1` [compound 3, methyl 2-(5-(furan-2-carbonyl)-2-phenylthiophen-3-yl)acetate], in the assay on INS-1 cells, the activity at 10 µM amounted to 152% and the activity at 50 µM is 318%. Besides, in assay [1] (3 h, 3 h incubation), the activity at 50 µM worked out at 82% and the activity at 100 µM came out at 74%.
With `CCOC(=O)Cc1cc(C(=NOC)c2ccc(OC)cc2)sc1-c1ccc(Cl)cc1` [compound 106, ethyl 2-(2-(4-chlorophenyl)-5-((methoxyimino)(4-methoxyphenyl)methyl)thiophen-3-yl)acetate], in the assay with INS-1 cells, the activity at 10 µM was 148% and the activity at 50 µM amounted to 151%. In assay [1] (20 h, 20 h incubation), the activity at 50 µM amounted to 74% and the activity at 100 µM stood at 45%.
Consider `CC(C)OC(=O)Cc1cc(C(=O)c2ccco2)sc1-c1ccc(Cl)cc1` [compound 44, isopropyl 2-(2-(4-chlorophenyl)-5-(furan-2-carbonyl)thiophen-3-yl)acetate], for which, in the assay on INS-1 cells, the activity at 10 µM worked out at 180% and the activity at 50 µM turned out to be 223%. Further, in assay [1] (3 h, 3 h incubation), the activity at 50 µM was found to be 83% and the activity at 100 µM stood at 69%. In assay [1] (20 h, 20 h incubation), the activity at 50 µM was 71% and the activity at 100 µM was 61%.
Take `CCOC(=O)Cc1cc(C(=O)C2CCCCC2)sc1-c1ccc(Cl)cc1` [compound 14, ethyl 2-(2-(4-chlorophenyl)-5-(cyclohexanecarbonyl)thiophen-3-yl)acetate]: in the assay with INS-1 cells, the activity at 10 µM is 152% and the activity at 50 µM turned out to be 165%. For the same molecule, in assay [1] (3 h, 3 h incubation), the activity at 50 µM is 91% and the activity at 100 µM came out at 73%.
With `CN(C)CCNC(=O)Cc1cc(C(=O)c2ccco2)sc1-c1ccc(Cl)cc1` [compound 95, 2-(2-(4-chlorophenyl)-5-(furan-2-carbonyl)thiophen-3-yl)-N-(2-(dimethylamino)ethyl)acetamide], in the assay on INS-1 cells, the activity at 10 µM is 144% and the activity at 50 µM is 147%.
Regarding `CCOC(=O)C(C)c1cc(C(=O)c2ccc(OC)cc2)sc1-c1ccc(Cl)cc1` (centres unmarked) [compound 123, ethyl 2-(2-(4-chlorophenyl)-5-(4-methoxybenzoyl)thiophen-3-yl)propanoate], in the assay on INS-1 cells, the activity at 10 µM stood at 168% and the activity at 50 µM worked out at 166%. In assay [1] (3 h, 3 h incubation), the activity at 50 µM came out at 101% and the activity at 100 µM worked out at 63%.
As for `CCOC(=O)Cc1cc(/C(=N/O)c2ccc(OC)cc2)sc1-c1ccc(Cl)cc1` [compound 104, ethyl 2-(2-(4-chlorophenyl)-5-((hydroxyimino)(4-methoxyphenyl)methyl)thiophen-3-yl)acetate], in the assay on INS-1 cells, the activity at 10 µM was found to be 153% and the activity at 50 µM amounted to 203%. Besides, in assay [1] (20 h, 20 h incubation), the activity at 50 µM worked out at 76% and the activity at 100 µM was determined as 50%.
For the molecule `CC(C)OC(=O)Cc1cc(C(=O)c2ccco2)sc1-c1ccc(Cl)cc1F` [compound 143, isopropyl 2-(2-(4-chloro-2-fluorophenyl)-5-(furan-2-carbonyl)thiophen-3-yl)acetate], in the assay with INS-1 cells, the activity at 10 µM was found to be 127% and the activity at 50 µM stood at 233%. In assay [1] (3 h, 3 h incubation), the activity at 50 µM was found to be 89% and the activity at 100 µM was 72%.
For the molecule `CCOC(=O)Cc1cc(C(=O)c2ccco2)sc1-c1ccc(Cl)c(Cl)c1` [compound 158, ethyl 2-[2-(3,4-dichlorophenyl)-5-(furan-2-carbonyl)-3-thienyl]acetate], in the assay on INS-1 cells, the activity at 10 µM amounted to 132% and the activity at 50 µM came to 201%. The “inhibition” value in assay [1] (3 h incubation, at the dose of 50 μM) is listed as “strongest inhibitions”. In assay [1] (3 h, 3 h incubation), the activity at 50 µM was determined as 59%.
Take `N#CCc1cc(C(=O)c2ccco2)sc1-c1ccc(F)cc1` [compound 145, 2-(2-(4-fluorophenyl)-5-(furan-2-carbonyl)thiophen-3-yl)acetonitrile]: in the assay on INS-1 cells, the activity at 10 µM is 125% and the activity at 50 µM came out at 145%.
On to `CCOC(=O)Cc1cc(C(=O)c2cccc(OC)c2)sc1-c1ccc(OC)cc1` [compound 30, ethyl 2-(5-(3-methoxybenzoyl)-2-(4-methoxyphenyl)thiophen-3-yl)acetate], for which the activity at 10 µM in the assay with INS-1 cells came out at 157%.
With `COc1ccc(C(=O)c2cc(CC(=O)N3CCN(C)CC3)c(-c3ccc(Cl)cc3)s2)cc1` [compound 93, 2-(2-(4-chlorophenyl)-5-(4-methoxybenzoyl)thiophen-3-yl)-1-(4-methylpiperazin-1-yl)ethanone], the activity at 10 µM in the assay on INS-1 cells stood at 149%.
Take `CCOC(=O)Cc1cc(C(=O)CCCCl)sc1-c1ccc(OC)cc1` [compound 37, ethyl 2-(5-(4-chlorobutanoyl)-2-(4-methoxyphenyl)thiophen-3-yl)acetate]: in the assay on INS-1 cells, the activity at 10 µM worked out at 157% and the activity at 50 µM was determined as 107%.
As to `CCOC(=O)Cc1cc(C(=O)c2ccco2)sc1-c1ccc(OC)cc1` [compound 22, ethyl 2-(5-(furan-2-carbonyl)-2-(4-methoxyphenyl)thiophen-3-yl)acetate], in the assay on INS-1 cells, the activity at 10 µM amounted to 152% and the activity at 50 µM came out at 207%.
For the molecule `COc1ccc(-c2sc(C(=O)c3cccc(OC)c3)cc2CC(=O)OCC2O[C@H]3OC(C)(C)O[C@H]3[C@H]3OC(C)(C)O[C@@H]23)cc1` (stereo partly drawn) [compound 85, ((3aS,5aS,8aS,8bS)-2,2,7,7-tetramethyltetrahydro-3aH-bis([1,3]dioxolo)[4,5-b:4′,5′-d]pyran-5-yl)methyl 2-(5-(3-methoxy-benzoyl)-2-(4-methoxy-phenyl)thiophen-3-yl)acetate], in the assay on INS-1 cells, the activity at 10 µM turned out to be 146%.
